Where two headings read alike, the source gives them in different places.

The values that follow come from patent US12527757B2, “Nanoemulsion of 18BETA-glycyrrhetinic acid” (ATSO CORPORATE AFFAIRS, S.A. DE C.V., priority 2019, dated 2026).

Data set [1] concerns HeLa cells. Briefly: Cell survival inhibition assay, HeLa. Conditions: HeLa (HPV-18), 24 hours, 10-100 μM. Format: cell-based. The procedure:
(§1) In this sense, a cell survival inhibition assay of different cell lines was carried out when exposed for hours 24 to one of the two drugs from FIG. 1. In this experiment, four cell lines were tested: HeLa, which are cell lines representative of cancer and HPV-18 infection, SiHa which are cells representative of cervical cancer with HPV-16 infection, C-33A which are cells representative of HPV-negative cervical carcinoma, and HaCaT, which are cancer and infection negative cells. The experiment consisted of exposing cells of the different cell lines to different concentrations of both drugs for 24 hours (10-100 μM) going in steps of 10 μM each.

The next data set relates to SiHa cells. Put plainly: Cell survival inhibition assay, SiHa. Format: cell-based. Conditions: SiHa (HPV-16), 24 hours, 10-100 μM. As for the experimental part: as §1
In another data set the test system is C-33A cells. Put plainly: Cell survival inhibition assay, C-33A. Format: cell-based. The following applies: C-33A (HPV-negative cervical carcinoma), 24 hours, 10-100 μM. The procedure: as §1
Data set [2] relates to HeLa cells. Put plainly: Alkaline comet assay (single cell electrophoresis), HeLa. The class given is cell-based. The following applies: HeLa cancer cells. As for the experimental part: (§2) This difference in drug performance can be explained by the difference in their mechanisms of action. […] The comet assay is an experiment that allows to see if the drug has a cytotoxic effect related to DNA fragmentation of the cells. This difference is visualized by the size of the “tails” of the “comets”, which is the fragmented DNA from the cells under study.
(§3) An analysis with a Wilcoxon test was performed to verify whether the means in the percentage of DNA in the comet tails of the different cell lines differ.
(§4) FIG. 2 depicts representative tail-DNA percentage data. (A) Microphotographs of the alkaline comet assay showing representative images of the CC cell lines and their negative control with their 18β and GA treatments of HeLa (HPV 18 cervical cancer) and HaCaT (HPV negative immortalized keratinocyte) (B) Comet assay data plot of Tail-DNA percentage **P<0.43 for HaCaT and P<2^−16. Larger comets for 18β treatment are observed.

The subject of the next data set is HaCaT cells. Put plainly: Alkaline comet assay (single cell electrophoresis), HaCaT. The class given is cell-based. As for the experimental part:
as §2, §3, §4

The conditions of data set [3]: cited from earlier work.
For data set [4] the following is noted: cited from earlier work. This is another data set of the same source.
A further data set concerns Rotavirus. The following applies: infected cultures; cited from earlier work.
For a further data set, the system named is Hepatitis C virus (HCV). The following applies: by preventing the release of infectious viral particles; cited from earlier work.

On to `CC1(C)[C@@H](O)CC[C@]2(C)[C@H]3C(=O)C=C4[C@@H]5C[C@@](C)(C(=O)O)CC[C@]5(C)CC[C@@]4(C)[C@]3(C)CC[C@@H]12` [Example 18β-GA, 18β-glycyrrhetinic acid], for which the “inhibition of cell survival” value in the data set on HeLa cells [1], in the data set on SiHa cells and in the data set on C-33A cells was “greater effect than GA” in each case. For the same molecule, the “DNA fragmentation (comet tails)” value is reported as “considerable DNA fragmentation” in the data set on HeLa cells [2] and “much less fragmentation” with HaCaT cells. Moreover, the “log P” value in data set [3] is reported as 6.574. The solubility in water entry in data set [4] was “insoluble in water”. Also, the “interference with Rotavirus replication” value with Rotavirus is on record as “up to 99%”.
As to `CC1(C)[C@@H](O[C@H]2O[C@H](C(=O)O)[C@@H](O)[C@H](O)[C@H]2O[C@@H]2O[C@H](C(=O)O)[C@@H](O)[C@H](O)[C@H]2O)CC[C@]2(C)[C@H]3C(=O)C=C4[C@@H]5C[C@@](C)(C(=O)O)CC[C@]5(C)CC[C@@]4(C)[C@]3(C)CC[C@@H]12` [GA, Glycyrrhizic acid], the “inhibition of cell survival” value in the data set with HeLa cells [1] is “minor effect”; in the data set with SiHa cells it was “no effect”; with C-33A cells it was “minor effect”. Moreover, the “DNA fragmentation (comet tails)” value in the data set with HeLa cells [2] and with HaCaT cells (HaCaT healthy cells) was “do not present this fragmentation” in each case. Moreover, the “reduction of Hepatitis C virus (HCV) titers” value with Hepatitis C virus (HCV) is on record as 50%.
